{"source": "patent US9040567B2", "about": "“BAX agonist, compositions, and methods related thereto” (Emory University, priority 2011, dated 2015)", "key": {"[1]": {"system": "A549 human lung cancer cells", "experiment": "sulforhodamine B (SRB) assay, surviving cell fraction", "type": "cell-based"}, "H1299 cells": {"system": "H1299 cells", "experiment": "apoptosis by ApoAlert Annexin-V kit in H1299 cells", "details": "1 μM, 48 h", "method": "(§3) (B) H1299, A549 or SAEC cells were treated with various types of small molecules (1 μM) for 48 h. Cell viability was assessed using ApoAlert Annexin-V kit. DMSO or cisplatin (40 μM) was used as a negative or positive control, respectively."}, "A549 cells [2]": {"system": "A549 cells", "experiment": "apoptosis by ApoAlert Annexin-V kit in A549 cells", "details": "1 μM, 48 h", "method": "as §3"}, "[3]": {"system": "A549 lung cancer xenografts", "experiment": "TUNEL assay of apoptosis in xenograft tumor tissues", "details": "50 mg/kg for 24 h", "method": "Apoptosis in tumor tissues was measured by TUNEL assay.\nApoptosis in tumor tissues was analyzed by TUNEL assay."}, "[4]": {"system": "A549 lung cancer xenografts", "experiment": "A549 subcutaneous lung tumor xenografts in nude mice", "method": "At day 6, tumors were removed and photographed. […] Tumor volume was estimated by caliper measurements, data are mean±s.e.m. […] Apoptosis in tumor tissues was measured by TUNEL assay."}, "A549 cells [5]": {"system": "A549 cells"}, "[6]": {"system": "primary normal small airway epithelial cells (SAEC)", "experiment": "apoptosis by ApoAlert Annexin-V kit in normal small airway epithelial cells", "details": "1 μM, 48 h", "method": "as §3"}, "BAX Ser184": {"system": "BAX Ser184", "experiment": "BAX phosphorylation in H157 cells transfected with WT, S184A or S184E BAX", "type": "cell-based, human", "details": "H157 cells expressing WT, 60 min", "protocol": "(§1) (A) A549 cells expressing endogenous BAX were metabolically labeled with ^32P-orthophosphoric acid and treated with nicotine for 60 min. BAX was immunoprecipitated by using an agarose-conjugated BAX antibody. Phosphorylation of BAX was determined by autoradiography. […] (C) A549 cells were treated with cisplatin (40 μM) in the absence or presence of nicotine (1 μM) for various times as indicated. Cell viability was analyzed for Annexin-V and PI binding by flow cytometry. […] Cells were metabolically labeled with ^32P-orthophosphoric acid and treated with nicotine for 60 min. Phosphorylated GFP-tagged BAX was analyzed by autoradiography. […] After 48 h, cells were treated with cisplatin (Cis) in the absence or presence of nicotine for 24 h. Cell viability was analyzed as in (C).\n(§2) To test whether BAX phosphorylation occurs in human lung cancer cells, A549 cells were metabolically labeled and treated with nicotine (1 μM) for 60 min. […] To test whether nicotine induces BAX phosphorylation at ser184, WT, S184A or S184E cDNA in the pcDNA3 mammalian expression vector was transfected into H157 cells."}, "BAX": {"target": "T1, BAX (Homo sapiens, UniProt Q07812)", "T1 construct": "A549 cells expressing endogenous BAX were metabolically labeled; endogenous in cells; host or cells: A549 cells", "T1 sequence (Q07812 whole entry)": "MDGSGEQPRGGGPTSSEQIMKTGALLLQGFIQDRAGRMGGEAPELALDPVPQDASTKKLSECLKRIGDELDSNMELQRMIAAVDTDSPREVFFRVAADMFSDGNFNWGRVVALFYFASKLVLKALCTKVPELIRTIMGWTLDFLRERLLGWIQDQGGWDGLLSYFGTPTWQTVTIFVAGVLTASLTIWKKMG", "experiment": "BAX phosphorylation in 32P-labeled A549 cells (autoradiography)", "type": "cell-based", "details": "nicotine 1 μM, 60 min", "protocol": "as §1, §2"}, "[7]": {"details": "A549 cells, 48 h, SRB assay, read-out: IC50"}}, "note": "Read-outs that look alike come from different tables or passages of the source."}
{"smiles": "NCCOc1ccccc1C=C1c2ccccc2-c2ccc([N+](=O)[O-])cc21", "note": "[CYD-2-11, 2-[2-(2-Nitro-fluoren-9-ylidenemethyl)-phenoxy]-ethylamine]", "values": [{"measurement": "IC50", "setting": "[1]; [7]", "value": 1.93, "unit": "µM"}]}
{"smiles": "O=[N+]([O-])c1ccc2c(c1)C(=Cc1ccccc1OC1CCNCC1)c1ccccc1-2", "note": "[CYD-2-13, 4-[2-(2-Nitro-fluoren-9-ylidenemethyl)-phenoxy]-piperidine]", "values": [{"measurement": "IC50", "setting": "[1]; [7]", "value": 5.91, "unit": "µM"}]}
{"smiles": "CC(=O)N1CCN(CCOc2ccccc2C=C2c3ccccc3-c3ccc([N+](=O)[O-])cc32)CC1", "note": "[CYD-2-17, 1-(4-{2-[2-(2-Nitro-fluoren-9-ylidenemethyl)-phenoxy]-ethyl}-piperazin-1-yl)-ethanone]", "values": [{"measurement": "IC50", "setting": "[1]; [7]", "value": 5.08, "unit": "µM"}]}
{"smiles": "NCCOc1ncccc1C=C1c2ccccc2-c2ccc([N+](=O)[O-])cc21", "note": "[CYD-4-61, 2-[3-(2-Nitro-fluoren-9-ylidenemethyl)-pyridin-2-yloxy]-ethylamine]", "values": [{"measurement": "IC50", "setting": "[1]; A549, 48 h", "value": 0.026, "unit": "µM"}]}
{"smiles": "O=[N+]([O-])c1ccc2c(c1)C(=Cc1ccccc1O)c1ccccc1-2", "note": "[SMBA1]", "values": [{"measurement": "apoptotic effect", "setting": "H1299 cells", "value": "potent apoptotic effect"}, {"measurement": "apoptotic effect", "setting": "A549 cells [2]", "value": "potent apoptotic effect"}, {"measurement": "apoptosis in tumor tissues (TUNEL)", "setting": "[3]", "value": "resulted in apoptosis in tumor tissues"}, {"measurement": "tolerability of treatment doses", "setting": "[4]; 25, 50 or 75 mg/kg i.p. q.d. for two weeks", "value": "well tolerated"}, {"measurement": "effect on established tumor xenografts (tumor volume)", "setting": "[4]; 25, 50 or 75 mg/kg i.p. q.d. for two weeks, preliminary results", "value": "significant regression of established lung cancer xenografts"}, {"measurement": "toxicities on liver, kidney and heart", "setting": "[4]; doses of 50-75 mg/kg", "value": "well tolerated without significant toxicities on liver, kidney and heart"}, {"measurement": "apoptotic cell death in combination with cisplatin", "setting": "A549 cells [5]; combination with cisplatin", "value": "enhances apoptotic cell death"}, {"measurement": "apoptotic effect on normal cells compared to H1299 or A549 cells", "setting": "[6]", "value": "significantly less apoptotic effect"}]}
{"smiles": "CN1CCCC1c1cccnc1", "note": "(stereo not drawn) [nicotine]", "values": [{"measurement": "phosphorylation of WT and mutant BAX", "setting": "BAX Ser184", "value": "induces phosphorylation of WT but not S184A or S184E mutant BAX"}, {"measurement": "survival of A549 cells following cisplatin treatment", "setting": "A549 cells [5]; cisplatin 40 μM, nicotine 1 μM", "value": "significantly prolongs survival of A549 cells"}, {"measurement": "BAX phosphorylation", "setting": "BAX", "value": "potently stimulates serine phosphorylation of BAX"}]}
